From paper PMC11697113, “The Hsc70 system maintains the synaptic SNARE protein SNAP-25 in an assembly-competent state and delays its aggregation [drawing 1]” (The Journal of Biological Chemistry, 2024)

Columns and labels:
[1] = target: T1, Hsc70 (Homo sapiens, UniProt P11142); assay: ATPase activity of Hsc70 (malachite green); format: biochemical; details: Hsc70 2 μM, peptide 200 μM, 1 mM ATP, HMK buffer, 1 mM DTT, 37 °C, 1 h, malachite green 620 nm; SD, three independent experiments
T1 construct: 6X His-tag (TEV-cleavable) (cleaved yes); made in house; host or cells: E. coli Rosetta (DE3)
T1 sequence (P11142 whole entry): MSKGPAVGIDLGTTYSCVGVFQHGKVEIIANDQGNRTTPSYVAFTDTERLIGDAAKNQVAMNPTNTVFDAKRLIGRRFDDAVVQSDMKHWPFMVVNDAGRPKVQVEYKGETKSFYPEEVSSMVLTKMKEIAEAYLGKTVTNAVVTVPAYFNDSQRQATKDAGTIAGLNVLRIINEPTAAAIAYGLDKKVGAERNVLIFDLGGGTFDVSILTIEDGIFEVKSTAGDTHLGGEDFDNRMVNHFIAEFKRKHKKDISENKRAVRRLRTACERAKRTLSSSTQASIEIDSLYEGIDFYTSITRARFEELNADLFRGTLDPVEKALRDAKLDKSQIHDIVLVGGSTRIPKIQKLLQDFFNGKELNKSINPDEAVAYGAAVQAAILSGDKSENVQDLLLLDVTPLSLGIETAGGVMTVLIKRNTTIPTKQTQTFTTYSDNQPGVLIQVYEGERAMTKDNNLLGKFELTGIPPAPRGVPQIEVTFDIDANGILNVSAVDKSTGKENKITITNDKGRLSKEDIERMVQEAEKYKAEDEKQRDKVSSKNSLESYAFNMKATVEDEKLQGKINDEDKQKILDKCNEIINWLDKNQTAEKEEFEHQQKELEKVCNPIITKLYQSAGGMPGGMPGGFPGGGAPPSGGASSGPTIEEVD
From the text: Hsp70s consist of an nucleotide-binding domain (NBD) and a substrate-binding domain (SBD). Hsc70 works using an allosteric mechanism whereby substrate binding at the SBD stimulates the ATP hydrolysis rate at the nucleotide-binding domain. The basal ATPase rate of Hsp70 is low, usually about 0.05 ± 0.009 mol Pi/mol protein, and increases when it is stimulated by binding of a peptide to the canonical site in the SBD. We measured the ability of SNAP-25 peptides SNNP and SNCP to stimulate the ATPase rate of Hsc70 (Fig. 5A). SNNP and SNCP binding cause a 1.5-fold increase of the Hsc70 ATPase rate over basal (observed rates upon addition of SNNP and SNCP were 0.089 ± 0.008 and 0.080 ± 0.005, respectively). In order to confirm that peptides are indeed binding at the canonical binding site of Hsc70, we used the V438F mutant that blocks the binding site ([37]). […] The addition of CSPαJ stimulates the ATPase activity of Hsc70 ∼4-fold with and without peptides.
Figure 5 SNN and SNC peptides interact with the canonical substrate-binding site of Hsc70.A, ATPase activity of Hsc70 (2 μM) in the absence (gray) and presence of 200 μM SNNP (orange) and SNCP (green) peptides. Error bars represent the SDs from three independent experiments. B, binding of SNAP-25 (black), SNNP (orange), LoopP (blue), and SNCP (green) peptides to Hsc70 followed by competition for FITC-p5 peptide using fluorescence anisotropy. Increasing concentrations of the competitors were added to a complex of Hsc70 (5 μM) and FITC-p5 peptide (50 nM). Error bars represent SDs from three independent experiments. […]
We performed ATPase assays to observe the activity of Hsc70 in the presence of SNAP25 peptides. […] Absorbance readings were taken at 620 nm using a BioTek plate reader. […]
(C) ATPase activity of Hsc70 (at 2 μM) in the absence (grey) and presence of 200 μM SNNP (orange) and L(Loop)-SNCP (green) peptides, and in the absence and presence of CSPa-J and CSPa-J/Apg2. The statistical significance was calculated using one-way ANOVA test with Sidak’s multiple comparison and the Hsc70 ATPase activity […]

[2] = target: T1, Hsc70; assay: Competition binding vs FITC-p5 by fluorescence anisotropy; details: Hsc70 5 μM, FITC-p5 50 nM, competitor 0 to 200 μM, phosphate buffer pH 7.4, overnight 4 °C, three independent experiments; for relative affinity for Hsc70: fluorescence anisotropy, comparator LOOPP
Method: Figure 3 Hsc70 forms complexes with SNAP-25.A, native PAGE of SNAP-25 (10 μM) in the presence and absence of Hsc70 (2 μM). The difference in signal intensity of His-SNAP25 probed with antibody is likely due to altered epitope exposure upon formation of the SNAP-25-Hsc70 complex. B, binding of SNAP-25 (black), SNAP-25 SNN (SNNFR, orange), and SNC (SNCFR, green)) fragments to Hsc70 by competition followed by fluorescence anisotropy. Increasing concentrations of the competitors were added to a complex of Hsc70 (5 μM) and FITC-p5 peptide (50 nM). Error bars represent SDs from three independent experiments.
To pin down the regions in SNAP-25 where Hsc70 binds we expressed the individual SNN and SNC fragments of SNAP-25 and tested their ability to compete for Hsc70 binding to an FITC-labeled p5 peptide (ALLLSAPRR).
Figure 5 SNN and SNC peptides interact with the canonical substrate-binding site of Hsc70.A, ATPase activity of Hsc70 (2 μM) in the absence (gray) and presence of 200 μM SNNP (orange) and SNCP (green) peptides. Error bars represent the SDs from three independent experiments. B, binding of SNAP-25 (black), SNNP (orange), LoopP (blue), and SNCP (green) peptides to Hsc70 followed by competition for FITC-p5 peptide using fluorescence anisotropy. Increasing concentrations of the competitors were added to a complex of Hsc70 (5 μM) and FITC-p5 peptide (50 nM). Error bars represent SDs from three independent experiments. C, structure of the canonical substrate-binding site of human HspA1 (PDB 4po2) illustrating the location of Hsc70 residues Ile 403 and Ile 440 in red and green spheres, respectively (N.B., Hsc70 and HspA1 share […] sequence identity). The SBD is shown in gray, bound substrate in cyan sticks, and the side chain of the residue occupying the 0th position in the chaperone (“anchor residue”) in orange ball and sticks. For better visualization of the substrate-binding site, residues 512 to 613, 405 to 408, and 431 were removed in this illustration of the structure. D, the Ile region of the ^1H-^13 C HMQC spectra of Ile-^13CH3-labeled Hsc70 (40 μM) in the absence (black) and in the presence of unlabeled SNNP (orange) and SNCP (green) peptides (200 μM).
To further characterize the binding of the SNAP-25 peptides to Hsc70 we used competition assays as above. Peptides SNNP, LOOPP, and SNCP were titrated against the protein-peptide complex of Hsc70 and FITC-p5 and fluorescence anisotropy was monitored to assess how well the SNAP-25 peptides displaced the model peptide.
Direct binding between the p5 peptide (QSRLLLSAPRRAA) and Hsc70 was carried out as described previously ([52]). […] Fluorescence anisotropy was measured in a BioTek plate reader (BioTek) with excitation at 485 nm and emission at 516 nm.
The measured anisotropy values were converted to fraction bound (fb) using the equation: fb=(r−r0)/(rb−r0) where r is the anisotropy value at any point, r0 is the anisotropy value of FITC-p5 in the absence of Hsc70, and rb is the anisotropy value of FITC-p5 when fully bound to Hsc70. […]
For competition assays, the concentrations of Hsc70 and FITC-P5 were kept constant at 5 μM and 50 nM, respectively, and the competitor substrate was titrated from 0 to 200 μM in phosphate buffer. […] Fluorescent anisotropy was measured as described above. […]

| Substance | ATPase rate of Hsc70 upon addition of peptide [1] | relative affinity for Hsc70 [2] | competition with p5 peptide for binding to Hsc70 ([2]; fluorescence anisotropy 485/516 nm) |
| --- | --- | --- | --- |
| RRMLQLVEESK [SNNP, peptide … from the SNN domain of SNAP-25] | 0.089 ± 0.008 | significantly higher affinity than LOOPP |  |
| synaptosomal-associated 25 kDa protein [SNAP-25] |  |  | competed with p5 peptide for binding to Hsc70 |
| EREQMAISGGFIRR [SNCP, peptide … from the LOOP-SNC domain of SNAP-25] | 0.080 ± 0.005 | significantly higher affinity than LOOPP |  |
